Test results from patent EP4696306A1, “ADENOSINE TRIPHOSPHATE SECRETION INHIBITOR, HEPATIC STELLATE CELL ACTIVATION INHIBITOR, HEPATIC STELLATE CELL DEACTIVATOR, HEPATIC FIBROSIS THERAPEUTIC AGENT, NON-ALCOHOLIC STEATOHEPATITIS THERAPEUTIC AGENT, PSORIASIS THERAPEUTIC AGENT, AND USE OF COMPOUND FOR PRODUCING ADENOSINE TRIPHOSPHATE …” (KURUME UNIVERSITY, priority 2023, dated 2024).

Target: T1, human VNUT (Homo sapiens, UniProt Q9BYT1)
T1 construct: made in house; host or cells: HIGH FIVE insect cells (baculovirus)
T1 sequence (Q9BYT1 1-430 isoform Q9BYT1-2): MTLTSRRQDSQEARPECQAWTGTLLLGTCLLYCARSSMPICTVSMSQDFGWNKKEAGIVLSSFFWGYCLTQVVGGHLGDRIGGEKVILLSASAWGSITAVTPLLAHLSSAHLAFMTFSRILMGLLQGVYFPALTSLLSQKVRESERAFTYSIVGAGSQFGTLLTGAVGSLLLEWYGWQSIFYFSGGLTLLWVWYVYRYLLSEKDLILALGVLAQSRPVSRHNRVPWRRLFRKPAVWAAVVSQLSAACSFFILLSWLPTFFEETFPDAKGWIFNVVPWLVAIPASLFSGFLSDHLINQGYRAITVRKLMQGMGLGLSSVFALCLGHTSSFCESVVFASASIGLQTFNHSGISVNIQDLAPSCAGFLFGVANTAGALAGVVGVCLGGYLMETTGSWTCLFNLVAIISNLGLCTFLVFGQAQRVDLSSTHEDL
Assay: ATP loading into reconstituted liposomes containing human VNUT
Format: biochemical
Conditions: 0.1 mM PEP; 30°C, 2 minutes; N = 3
Protocol: Human VNUT was prepared according to Reference C (Keisuke Sawada et al., 2008, Identification of a vesicular nucleotide transporter, Proc Natl Acad Sci USA, vol. 105, no. 15, 5683-5686). Insect cells (HIGH FIVE cells) were infected at MOI = 1 with a baculovirus in which a human VNUT expression system was incorporated. HIGH FIVE cells expressing VNUT (1 × 10^8 cells) were collected with a cell scraper, and suspended at about 8 mg/ml in 20 mM Tris-HCl (pH 8.0), 0.1 M potassium acetate, 10% glycerol, 10 µg/ml pepstatin A, and 10 µg/ml leupeptin, followed by homogenization of the cells using an ultrasonic generator (manufactured by Sonics Materials). […]
VNUT (protein, 20 µg) prepared by the above method was mixed with liposomes (lipid weight, 200 µg), and left to stand at -80°C for 30 minutes. […] A major band was detected at a position of about 68 kDa. The proteins after the electrophoresis with the ePAGEL E-T520 2-10% gradient gel (manufactured by Atto) were electrotransferred to a nitrocellulose sheet, and analyzed by Western blotting using an anti-human SLC17A9 (VNUT) rabbit polyclonal antibody (manufactured by Proteintech).
The ATP transport activity of the VNUT-containing reconstituted liposomes prepared by the above method was measured. […]

C=C(OP(=O)(O)O)C(=O)O [PEP, phosphoenolpyruvic acid]
ATP loading into liposomes: strongly inhibited
